In ChEMBL document CHEMBL3120100, “Identification and biological evaluation of flavonoids from the fruits of Prunus mume” (2014) one finds Activity, TRAP activity (% of control) and inhibition data, which are given here for 6 compounds.

Experiment [1] can be described thus: Antioxidant activity assessed as reduction of Cu2+ to Cu+ at 10 uM. The format is functional.
The nature of experiment [2]: Antioxidant activity assessed as trolox equivalent of APPH-induced peroxyl radical scavenging activity at 1 uM measured every 2 mins by ORAC fluorescence assay. The format is functional.
The target of experiment [3] is T1, Tartrate-resistant acid phosphatase type 5 (Mus musculus) (UniProt Q05117).
T1 sequence (whole entry): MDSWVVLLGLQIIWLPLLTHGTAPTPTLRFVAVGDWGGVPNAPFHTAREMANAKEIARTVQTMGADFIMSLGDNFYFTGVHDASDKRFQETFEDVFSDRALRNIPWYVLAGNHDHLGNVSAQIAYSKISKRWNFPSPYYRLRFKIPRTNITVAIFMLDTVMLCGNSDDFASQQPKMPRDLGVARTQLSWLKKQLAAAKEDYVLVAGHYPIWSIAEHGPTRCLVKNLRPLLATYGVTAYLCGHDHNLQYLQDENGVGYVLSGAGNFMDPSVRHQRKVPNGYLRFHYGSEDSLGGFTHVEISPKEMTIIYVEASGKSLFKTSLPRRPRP
Put plainly: Inhibition of TRAP activity in RANKL-induced Balb/c mouse RAW264.7 cells at 10 uM after 1 hr by ELISA relative to control. The format is cell-based. (In general: An ELISA detects its analyte on a solid surface through an enzyme-linked reagent.)

Experiment [4] in a line: Antiosteoporotic activity in alpha-MEM-induced C57BL/6 mouse MC3T3-E1 cells assessed as increase in mineralization by measuring calcium deposition at 5 uM by Alizarin Red staining assay relative to control. The format is functional.
Experiment [5] in a line: Antiosteoporotic activity in alpha-MEM-induced C57BL/6 mouse MC3T3-E1 cells assessed as increase in collagen synthesis at 5 uM by Sirius Red-based colorimetric assay relative to control. Type of experiment: functional.
The target in experiment [6] is T1, Tartrate-resistant acid phosphatase type 5 (Mus musculus). Put plainly: Inhibition of TRAP activity in RANKL-induced Balb/c mouse RAW264.7 cells at 1 uM after 1 hr by ELISA relative to control. Type of experiment: cell-based.
A short description of experiment [7]: Antiosteoporotic activity in C57BL/6 mouse MC3T3-E1 cells assessed as increase in collagen synthesis at 5 uM by Sirius Red-based colorimetric assay relative to control. Type of experiment: functional.
Experiment [8] can be described thus: Antioxidant activity assessed as trolox equivalent of APPH-induced peroxyl radical scavenging activity measured every 2 mins by ORAC fluorescence assay. Type of experiment: functional.
Experiment [9] in a line: Antiosteoporotic activity in C57BL/6 mouse MC3T3-E1 cells assessed as increase in mineralization by measuring calcium deposition at 5 uM by Alizarin Red staining assay relative to control. Type of experiment: functional.
Experiment [10] has as its target T1, Tartrate-resistant acid phosphatase type 5 (Mus musculus). Put plainly: Inhibition of TRAP activity in Balb/c mouse RAW264.7 cells at 10 uM after 1 hr by ELISA relative to control. The format is cell-based.

For orientation: inhibition means the change of the read-out against control, counted positive when it falls. Take `Oc1ccc([C@@]23Oc4cc(O)cc(O)c4[C@@H](c4c(O)cc(O)c5c4O[C@H](c4ccc(O)c(O)c4)[C@H](O)C5)[C@@H]2O3)cc1`: the Activity in [1] is 29.9 µM; in [2], 5.42 µM; in experiment [4], 89.84%; in experiment [5], 77.16%; in experiment [7] it was 179.68%; in [8], “Dose-dependent effect”. Moreover, the Activity in experiment [9] is on record as 151.36%. In experiment [3], the TRAP activity (% of control) is 85.6%. In addition, in experiment [6], the inhibition worked out at 78.5%.
In the case of `Oc1cc(O)c2c(c1)O[C@@]1(c3ccc(O)c(O)c3)O[C@H]1[C@@H]2c1c(O)cc(O)c2c1O[C@H](c1ccc(O)c(O)c1)[C@H](O)C2`, the Activity was 34.7 µM in experiment [1]; 5.22 µM in experiment [2]; 109.85% in experiment [4]; 103.38% in experiment [5]; 240.74% in [7]; “Dose-dependent effect” in experiment [8]. Further, the Activity in experiment [9] is listed as 185.08%. For the same compound, the TRAP activity (% of control) in experiment [3] is 107%. The inhibition in [6] was 98%.
As to `C[C@@H]1O[C@@H](O[C@H]2[C@H](Oc3c(-c4ccc(O)c(O)c4)oc4cc(O)cc(O)c4c3=O)O[C@H](CO)[C@H](O)[C@@H]2O)[C@H](O)[C@H](O)[C@H]1O`, the Activity in [1] is 19.4 µM; in experiment [2] it was 3.36 µM; in [4] it was 104.72%; in experiment [5] it was 96.59%; in experiment [7], 224.92%; in experiment [8], “Dose-dependent effect”. For the same compound, the Activity in experiment [9] is 176.44%. The TRAP activity (% of control) in experiment [3] was 128%. In addition, in experiment [6], the inhibition came out at 101%.
For `Oc1cc(O)c2c(c1)O[C@H](c1ccc(O)c(O)c1)[C@H](O)C2` [(-)-EPICATECHIN], the Activity in experiment [1] was 25.7 µM; in experiment [2], 4.49 µM; in experiment [4], 111.92%; in experiment [5], 105.69%; in experiment [7], 246.13%; in experiment [8], “Dose-dependent effect”. Besides, the Activity in [9] is listed as 188.57%. The TRAP activity (% of control) in [3] worked out at 84%. In addition, the inhibition in experiment [6] stood at 78.3%.
Turning to `O=c1c(O[C@@H]2O[C@H](CO)[C@@H](O)[C@H](O)[C@H]2O)c(-c2ccc(O)c(O)c2)oc2cc(O)cc(O)c12` [ISOQUERCETIN], the Activity is 21.3 µM in experiment [1]; 4.4 µM in experiment [2]; 107.58% in experiment [4]; 112.49% in experiment [5]; 261.95% in [7]; “Dose-dependent effect” in experiment [8]. In experiment [9], the Activity amounted to 181.25%. Moreover, in [3], the TRAP activity (% of control) came out at 82.9%. In addition, the inhibition in [6] stood at 76.6%.
Consider `C[C@@H]1O[C@@H](OC[C@H]2O[C@@H](Oc3c(-c4ccc(O)c(O)c4)oc4cc(O)cc(O)c4c3=O)[C@H](O)[C@@H](O)[C@@H]2O)[C@H](O)[C@H](O)[C@H]1O` [RUTIN], for which the Activity is 30.1 µM in experiment [1]; 3.78 µM in [2]; 103.24% in [4]; 100.09% in experiment [5]; 233.08% in [7]; “Dose-dependent effect” in experiment [8]. The Activity in experiment [9] came out at 173.94%. The TRAP activity (% of control) in [3] is 71.7%. In addition, the inhibition in experiment [6] came out at 78%; in [10], 146%.
